The record followed here is patent US20240002375A1, “2-(INDAZOL-5-YL)-6-(PIPERIDIN-4-YL)-1,7-NAPHTHYRIDINE DERIVATIVES AND RELATED COMPOUNDS AS MODULATORS FOR SPLICING NUCLEIC ACIDS AND FOR THE TRE” (REMIX THERAPEUTICS INC., priority 2020, published 2024).

Type in all cases: cell-based
In one assay the test system is HTT mRNA. The experiment in a line: Splicing assay (RT-qPCR) of HTT mRNA alternative junction (AJ) and canonical junction (CJ). The note with it: A673 or K562 cells, 24 hours; for IC50: decrease in CJ mRNA, read-out: HTT CJ IC50; for AC50: increase in AJ mRNA, read-out: HTT AJ AC50. In short, it runs like this: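 A673 (adherent, 24 h pre-plating) or K562 cells treated 24 h at 37 °C with an 11-point 3-fold dilution series, top 10 uM, DMSO ≤0.25%. Lysates analysed by one-step RT-qPCR for HTT canonical (CJ) and alternative-exon (AJ) junctions, normalised to PPIA (A673) or GAPDH/GUSB (K562).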
On the technique in general: Real-time PCR tracks product formation cycle by cycle.

For the next assay, the system named is HTT CJ mRNA. The experiment in a line: Gene panel canonical junction qPCR splicing assay, HTT. The note with it: Table 4, read-out: HTT IC50 (decrease in CJ mRNA levels). In outline:
(§1)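 A673 or K562 cells treated with compound; canonical-junction mRNA measured by RT-qPCR with junction-spanning primer/probe sets, normalized to GAPDH, GUSB or PPIA and DMSO (2^−ΔΔCt). IC50 for CJ decrease from 4-parameter logistic fit of percentage response.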

A further assay relates to Target C CJ mRNA. The experiment in a line: Gene panel canonical junction qPCR splicing assay, Target C. As to conditions: Table 4, read-out: Target C IC50 (decrease in CJ mRNA levels). In short, it runs like this:
as §1

The test system of the next assay is SMN2 CJ mRNA. Kind of assay: Gene panel canonical junction qPCR splicing assay, SMN2. The note with it: Table 4, read-out: SMN2 IC50 (decrease in CJ mRNA levels). In short, it runs like this:
as §1

Some results are limits rather than exact numbers.

In the case of `Cn1cc2cc(-c3ccc4nc(C5CCNCC5)ccc4n3)c(C(F)F)cc2n1` [Compound 196, 2-[6-(difluoromethyl)-2-methylindazol-5-yl]-6-(piperidin-4-yl)-1,5-naphthyridine], the IC50 with HTT mRNA is > 10000 nM; in the assay with HTT CJ mRNA, > 10000 nM; with Target C CJ mRNA it was > 10000 nM; with SMN2 CJ mRNA, 1000 to 10000 nM. For the same compound, in the assay with HTT mRNA, the AC50 is > 10000 nM.
For `Cn1cc2cc(-c3ccc4nc(N5CC[C@H](NC6CC6)C5)ccc4n3)c(O)cc2n1` [Compound 197, 5-{6-[(35)-3-(cyclopropylamino)pyrrolidin-1-yl]-1,5-naphthyridin-2-yl}-2-methylindazol-6-ol], the IC50 with HTT mRNA was < 100 nM; with HTT CJ mRNA it was < 100 nM; in the assay with Target C CJ mRNA, 100 to 1000 nM; in the assay on SMN2 CJ mRNA it was < 100 nM. Further, the AC50 in the assay with HTT mRNA is < 100 nM.
Turning to `Cn1cc2cc(-c3ccc4nc(N5CC[C@@H](NC6CC6)C5)ccc4n3)c(O)cc2n1` [Compound 198], the 50% inhibitory concentration (IC50) in the assay on HTT mRNA was < 100 nM; in the assay with HTT CJ mRNA it was < 100 nM; in the assay on Target C CJ mRNA it was 100 to 1000 nM; with SMN2 CJ mRNA, < 100 nM. Further, the AC50 in the assay on HTT mRNA was < 100 nM.
As for `Cn1cc2nc(-c3ccc4nc(C5CCNCC5)ccc4n3)ccc2n1` [Compound 199, 2-{2-methylpyrazolo[4,3-b]pyridin-5-yl}-6-(piperidin-4-yl)-1,5-naphthyridine], the 50% inhibitory concentration (IC50) in the assay with HTT mRNA, with HTT CJ mRNA, with Target C CJ mRNA and with SMN2 CJ mRNA was 100 to 1000 nM in each case. Also, the AC50 in the assay on HTT mRNA lay within 100 to 1000 nM.
Regarding `Cn1cc2cc(-c3ccc4nc(C5CCNCC5)ccc4n3)ncc2n1` [Compound 200], the IC50 in the assay with HTT mRNA, in the assay with HTT CJ mRNA, in the assay with Target C CJ mRNA and in the assay on SMN2 CJ mRNA was 1000 to 10000 nM throughout. In addition, in the assay with HTT mRNA, the concentration at half-maximal activity (AC50) lay in the range of 1000 to 10000 nM.
As to `Cc1cn2cc(-c3ccc4nc(N5CCC(NC(C)(C)C)C5)ccc4n3)cc(C)c2n1` (centres unmarked) [Compound 201], the IC50 in the assay on HTT mRNA was 100 to 1000 nM; in the assay on HTT CJ mRNA, 100 to 1000 nM; with Target C CJ mRNA it was 100 to 1000 nM; with SMN2 CJ mRNA, < 100 nM. Moreover, the AC50 with HTT mRNA fell in the range of 100 to 1000 nM.
For `Cn1cc2cc(-c3ccc4nc(N5CCC(NC(C)(C)C)C5)ccc4n3)c(O)c(F)c2n1` (centres unmarked) [Compound 202], the concentration for half-maximal inhibition (IC50) is < 100 nM in the assay with HTT mRNA, < 100 nM with HTT CJ mRNA, < 100 nM in the assay with Target C CJ mRNA and > 10000 nM in the assay with SMN2 CJ mRNA. Moreover, the AC50 with HTT mRNA is < 100 nM.
With `Cc1cn2nc(-c3ccc4nc(N5CCC(NC(C)(C)C)C5)ccc4n3)c(O)c2c(C)n1` (centres unmarked) [Compound 203, 2-{6-[3-(tert-butylamino)pyrrolidin-1-yl]-1,5-naphthyridin-2-yl}-4,6-dimethylpyrazolo[1,5-a]pyrazin-3-ol], the IC50 in the assay on HTT mRNA, with HTT CJ mRNA, with Target C CJ mRNA and in the assay with SMN2 CJ mRNA was < 100 nM throughout. Also, the AC50 with HTT mRNA was < 100 nM.
Regarding `Cn1cc2cc(-c3ccc4nc(C5CCNCC5)ccc4n3)c(C#N)cc2n1` [Compound 204, 2-methyl-5-[6-(piperidin-4-yl)-1,5-naphthyridin-2-yl]indazole-6-carbonitrile], the IC50 in the assay on HTT mRNA was 1000 to 10000 nM; in the assay with HTT CJ mRNA it was 1000 to 10000 nM; with Target C CJ mRNA, > 10000 nM; in the assay on SMN2 CJ mRNA, 100 to 1000 nM. In the assay on HTT mRNA, the half-maximal activity concentration (AC50) lay in the range of 1000 to 10000 nM.
On to `Cn1cc2nc(-c3ccc4nc(C5CCNCC5)ccc4n3)c(F)cc2n1` [Compound 205, 2-{6-fluoro-2-methylpyrazolo[4,3-b]pyridin-5-yl}-6-(piperidin-4-yl)-1,5-naphthyridine], for which the IC50 in the assay with HTT mRNA, with HTT CJ mRNA, with Target C CJ mRNA and with SMN2 CJ mRNA was 1000 to 10000 nM in each case. Further, the AC50 with HTT mRNA lay within 1000 to 10000 nM.
For the compound `Cc1cn2cc(-c3ccc4nc(N5CCC(NC(C)(C)C)C5)ccc4n3)nc(C)c2n1` (centres unmarked) [Compound 206], the concentration for half-maximal inhibition (IC50) with HTT mRNA, with HTT CJ mRNA, in the assay on Target C CJ mRNA and in the assay on SMN2 CJ mRNA was 1000 to 10000 nM in each case. Also, the AC50 in the assay on HTT mRNA was in the range of 1000 to 10000 nM.
Turning to `Cn1cc2nc(-c3ccc4nc(N5CCC(NC(C)(C)C)C5)ccc4n3)c(F)cc2n1` (centres unmarked) [Compound 207], the IC50 in the assay on HTT mRNA, with HTT CJ mRNA, in the assay with Target C CJ mRNA and in the assay with SMN2 CJ mRNA was 1000 to 10000 nM each time. In addition, in the assay on HTT mRNA, the concentration at half-maximal activity (AC50) was in the range of 1000 to 10000 nM.
Regarding `Cc1nc(-c2ccc3nc(N4CCC(NC(C)(C)C)C4)ccc3n2)cc2cn(C)nc12` (centres unmarked) [Compound 208], the IC50 was > 10000 nM with HTT mRNA, > 10000 nM in the assay on HTT CJ mRNA, > 10000 nM in the assay with Target C CJ mRNA and 1000 to 10000 nM in the assay on SMN2 CJ mRNA. Besides, the AC50 with HTT mRNA was > 10000 nM.

In general, IC50 refers to the point on the concentration scale where inhibition reaches its midpoint. In general, AC50 refers to the midpoint of the concentration-response curve, whichever way the signal moves.
